Results from patent publication US20220160703A1, “TUMOR-SELECTIVE COMBINATION THERAPY” (The Board of Regents of The University of Texas System, priority 2019, published 2022).

Legend:
TC-1 tumor = assay: TC-1 subcutaneous tumor model; format: in vivo
Experimental: (FIG. 2A) MC38 cells were subcutaneously transplanted into C57BL/6 WT (n=5-6/group) and Rag1 KO mice (n=5/group), respectively. Tumor bearing mice were treated with β-lap (0.3 mg, i.t.) every other day for four times. […] (FIG. 2B) MC38 tumor bearing C57BL/6 mice (n=5/group) were treated with β-lap (0.3 mg, i.t.) every other day for four times. For CD8^+ T cell depletion, 200 μg of anti-CD8 antibodies were intraperitoneally injected four times at three days interval during the treatment. (FIG. 2C) TC-1 tumor bearing C57BL/6 mice (n=4-5/group) were treated with β-lap (0.1 mg, i.t.) for four times with or without anti-CD8 antibodies. […] (FIG. 2E) 2×10^6 A549 cells were subcutaneously injected into C57BL/6 Rag1^−/− mice (n=5/group for vehicle and β-lap; n=7/group for vehicle+OT-1 and β-lap+OT-1). 30 days later, the mice were i.v. adoptively transfected with 2×10^6 lymph node cells from OT-1 transgenic mice. On the following day, tumor-bearing mice were intratumorally treated with β-lap (0.2 mg) every other day for 4 times. (FIG. 2F) A549 cells were subcutaneously injected into NSG-SGM3 (n=5/group) or NSG-SGM3 harboring human CD34^+ hematopoietic stem cells (n=5/group for Hu-NSG vehicle; n=6/group for Hu-NSG β-lap). Tumor bearing mice were treated with β-lap (0.2 mg, i.t.) every other day for four times. Tumor growth was measured twice a week.
(FIG. 15A) C57BL/6J WT or rag−/− mice (n=5/group) were inoculated subcutaneously (s.c.) with 6×10^5 MC38 cells and treated intratumorally (i.t.) with 0.15 mg of IB-DNQ or vehicle on day 10, day 12, day 14 and day 16. (FIG. 15B) C57BL/6J WT or rag−/− mice (n=5/group) were inoculated subcutaneously (s.c.) with 1×10^5 TC-1 cells and treated intratumorally (i.t.) with 0.15 mg of IB-DNQ or vehicle on day 10, day 12, day 14 and day 16. Tumor diameters were measured by calipers twice a week. Tumor volume is presented as mean±SD. *p<0.05, **p<0.01, ***P<0.001.
FIGS. 17A-I (related to FIGS. 1A-J). […] (FIG. 17A) NQO1 expression in different murine cancer cell lines was determined by western blotting assay. […] (FIG. 17C) MC38 cells (NQO1 WT or KO) were treated with β-lap for 3 hr followed by washing and replacing fresh medium. Cell viability was determined by Sulforhodamine B (SRB) Assay 48 hr later. […] (FIG. 17E, FIG. 17F) B16 cells (NQO1 null or stable overexpression) were treated with β-lap with or without dicoumarol (DIC, 50 μM) for 3 hr followed by washing and replacing medium. Cell viability was determined by SRB Assay 48 hr later. […] Catalase (1000 U/ml) was added and cell viability was assessed 48 hr later. (FIG. 17H) C57BL/6 mice (n=5/group) were transplanted with TC-1 cells, and intratumorally treated with β-lap (0.1 or 0.3 mg) every other day for four times. Tumor growth was monitored twice a week. […] Data are shown as mean±SEM. **P<0.01, ***P<0.001, ****P<0.0001 determined by unpaired student t-test (FIG. 17G) or two-way ANOVA (FIG. 17H and FIG. 17I).
6×10^5 MC38 or 8×10^5 MC38 NQO1 KO cells were subcutaneously transplanted into Rag1^−/−, C57BL/6, and NSG mice, respectively (n=5/group). Tumor-bearing mice were treated with IB-DNQ (12 mg/kg, i.t.) or 20% HPβCD (Vehicle) every other day for four times after tumor volumes reached to 50 mm^3.

[1] = Methemoglobinemia and weight loss; format: in vivo; conditions: MC38 tumor bearing mice, 10 Gy + β-lap

Q: With `CC1(C)CCC2=C(O1)c1ccccc1C(=O)C2=O` [β-lap, β-lapachone] as the compound, how does the “tumor response in WT mice” value (TC-1 tumor; 3 doses of β-lap (0.3 mg i.t.)) read?
A: The value was “tumor regression occurred”.

Q: What about the “tumor response in rag−/− mice” value (TC-1 tumor; 3 doses of β-lap (0.3 mg i.t.)) of the same compound?
A: The value was “but not in adaptive immune-deficient rag^−/− mice”.

Q: What about the “antitumor efficacy in STING deficient mice” value (TC-1 tumor; β-lap 0.3 mg i.t.) of the same compound?
A: Its value is “significantly impaired the antitumor efficacy”.

Q: What about the tumor growth (TC-1 tumor; β-lap 0.1 or 0.3 mg i.t. every other day four times) of the same compound?
A: The tumor growth was “significant tumor suppression”.

Q: And the “tumor growth inhibition with anti-CD8 antibody” value (TC-1 tumor; β-lap + anti-CD8 antibody versus β-lap alone)?
A: The value was “complete failure of tumor growth inhibition”.

Q: And the “methemoglobinemia or weight loss” value [1]?
A: Its value is “no significant methemoglobinemia or weight loss”.
